Read-outs that look alike come from different tables or passages of the source.
Experiments:
HL-60 cells [1] = experiment: observation of apoptosis under an optical microscope; assay type: cell-based, human; conditions: HL-60, 24 hours
Procedure: (1) HL-60 cells (ATCC CCL-240) incubated at 37° C. in an RPMI 1640 medium (manufactured by BioWhittaker) containing 10% of fetal bovine serum (manufactured by JRH) treated at 56° C. for 30 minutes were suspended in an RPMI 1640 medium to make the concentration 2.5×10^5 cells/5 ml.
To 5 ml of this suspension were added 10 μl of 12.5 mM, 25 mM, 50 mM or 100 mM of a 70% ethanolic solution of 4,5-dihydroxy-2-pentenal prepared in Example 6-(1), 0.05 mM, 0.5 mM, 5 mM or 50 mM of a 70% ethanolic solution of 4-hydroxy-2-cyclopenten-1-[…] prepared in Example 6-(1), 5 mM, 10 mM or 20 mM of a 70% ethanolic solution of 4-(9-adeninyl)-2-cyclopenten-1-one prepared in Example 4-(4), 2.5 mM, 5 mM, 15 mM or 25 mM of a 70% ethanolic solution of 4-(9-guaninyl)-2-cyclopenten-1-one prepared in Example 4-(5), 75 mM, 150 mM or 300 mM of a 70% ethanolic solution of 1,5-epoxy-1-hydroxy-3-penten-2-one prepared in Example 5-(2) or 5 mM, 25 mM or 50 mM of a 70% ethanolic solution of 2-(trans-3,4-dihydroxy-1-butenyl)-4-(trans-2-formylvinyl)-1,3-dioxolane prepared in Example 6-(2) followed by incubating at 37° C. in the presence of 5% carbon dioxide gas for 24 hours.
Incidentally, such phenomena were not noted in the incubated cells to which […] of 70% ethanolic solution were added used as a control.

HL-60 cells [2] = experiment: Trypan Blue staining, survival rate; assay type: cell-based; conditions: Homo sapiens, HL-60, 24 hours, concentration where survival rate becomes 50%, read-out: Survival Rate50
Procedure: (3) The cells which were incubated for 24 hours by the same manner as in Example 9-(2) were stained with 0.4% Trypan Blue and observed under an optical microscope, numbers of viable cells which were not stained and of dead cells which were stained in blue were measured, concentration (survival rate50) of each of the samples where survival rate becomes 50% was determined and the result is given in Table 1.

DSEK cells = experiment: cell growth of DSEK cells (rheumatism model in vitro), Premix WST-1; assay type: cell-based, human; conditions: for IC50: Homo sapiens; for inhibition of growth of rheumatism cells / antirheumatic activity: compared with the case where PBS was added
Procedure: (2) DSEK cells (owned by Department of Second Internal Medicine, Total Medical Center, Saitama Medical College, as a rhematism model in vitro) which were fibroblast cell strains established from synovial membrane from a patient suffering from human chronic rheumatism were incubated in an Iscov-MEM medium (IMDM; manufactured by Gibco BRL) containing 10% of FBS (manufactured by BioWhittaker) at 37° C. in the presence of 5% CO2 until the cells saturated in a incubator, a trypsin-EDTA solution (manufactured by BioWhittaker) was suspended in the above medium to an extent of 3×10^4 cells/ml and each 200 μl of the suspension was placed in each well of a 96-well microtiter plate (manufactured by Falcon). When the cells were almost in a state of 80% saturation after 5-7 days from incubation, the medium was exchanged and 200 μl of the above medium containing 50, 75, 100 or 150 μM of 4-hydroxy-2-cyclopenten-1-one or 4,5-dihydroxy-2-pentenal were added thereto.
A time course of 96 hours was adopted and, every 24 hours, 10 μl of Premix WST-1 (MK 400; manufactured by Takara Shuzo) were added followed by reacting at 37° C. for 3.5 hours and the value (A450-650) obtained by subtracting the absorbance at 650 nm (A650) from that at 450 nm (A450) was defined as a degree of cell growth.
(3) DSEK cells were prepared under the conditions as mentioned in Example 15-(2) and 20 μl of medium containing 25, 50, 75, 100, 200 or 400 μM of 4,5-dihydroxy-2-pentenal, 4-hydroxy-2-cyclopenten-1-one, 4-(9-guaninyl)-2-cyclopenten1-one or 2-(3,4-dihydroxy-1-butenyl)-4-(2-formylvinyl)-1,3-dioxolane were added thereto.
A time course of 72 hours was adopted and, every 24 hours, degree of cell growth was measured with a lapse of time. IC50 of each of the compounds was measured as well.

human IL-1α = experiment: cytokine production in DSEK cells, ELISA; assay type: cell-based; conditions: DSEK cell incubation, supernatant every 24 hours
Procedure: Now, in the DSEK cell incubation, 150 μl/well of the supernatant liquid of the medium were recovered every 24 hours and influence of 4-hydroxy-2-cyclopenten-1-one or 4,5-dihydroxy-2-pentenal on the production of cytokines (human TGF-β, human FGF-β, human IL-1α and human IL-10) was measured using an ELISA-kit specific to each of the cytokine (the kit manufactured by INTERGEN or human FGF-β and human IL-10; and the kit manufactured by Promega for human IL-1α and human TGF-β).

[3] = 24 hours, Example 15-(3), read-out: IC50
[4] = 48 hours, Example 15-(2), read-out: IC50, 50% cell growth inhibiting concentration
[5] = 72 hours, Example 15-(3), read-out: IC50
[6] = 96 hours, Example 15-(2), read-out: IC50, 50% cell growth inhibiting concentration

## O=CC=CC(O)CO (single isomer, unassigned) [4,5-dihydroxy-2-pentenal, trans-4,5-dihydroxy-2-pentenal]
HL-60 cells [1]
  final concentration at which aggregation of nuclei, reduction in size of the cells and formation of apoptic body were confirmed: ≥ 1 µM
HL-60 cells [2]
  IC50: 124 µM
DSEK cells; 50 μM, 24 hours
  Degree of Cell Growth: 1.12 A450-650
DSEK cells; 50 μM, 48 hours
  Degree of Cell Growth: 0.83 A450-650
DSEK cells; 50 μM, 72 hours
  Degree of Cell Growth: 0.96 A450-650
DSEK cells; 50 μM, 96 hours
  Degree of Cell Growth: 0.98 A450-650
DSEK cells; 75 μM, 24 hours
  Degree of Cell Growth: 1.11 A450-650
DSEK cells; 75 μM, 48 hours
  Degree of Cell Growth: 0.77 A450-650
DSEK cells; 75 μM, 72 hours
  Degree of Cell Growth: 0.67 A450-650
DSEK cells; 75 μM, 96 hours
  Degree of Cell Growth: 0.59 A450-650
DSEK cells; 100 μM, 24 hours
  Degree of Cell Growth: 1.02 A450-650
DSEK cells; 100 μM, 48 hours
  Degree of Cell Growth: 0.63 A450-650
DSEK cells; 100 μM, 72 hours
  Degree of Cell Growth: 0.54 A450-650
DSEK cells; 100 μM, 96 hours
  Degree of Cell Growth: 0.59 A450-650
DSEK cells; 150 μM, 24 hours
  Degree of Cell Growth: 0.96 A450-650
DSEK cells; 150 μM, 48 hours
  Degree of Cell Growth: 0.61 A450-650
DSEK cells; 150 μM, 72 hours
  Degree of Cell Growth: 0.41 A450-650
DSEK cells; 150 μM, 96 hours
  Degree of Cell Growth: 0.55 A450-650
DSEK cells; [3]
  IC50: 232 µM
DSEK cells; [4]
  IC50: 165 µM
DSEK cells; [5]
  IC50: 119 µM
DSEK cells; [6]
  IC50: 75 µM
DSEK cells
  inhibition of growth of rheumatism cells / antirheumatic activity: significant inhibition
Human IL-1α
  production of human IL-1α: activated

## Nc1nc2c(ncn2C2C=CC(=O)C2)c(=O)[nH]1 (centres unmarked) [4-(9-guaninyl)-2-cyclopenten-1-one]
HL-60 cells [1]
  final concentration at which aggregation of nuclei, reduction in size of the cells and formation of apoptic body were confirmed: ≥ 39 µM
HL-60 cells [2]
  IC50: 67.9 µM
DSEK cells; [3]
  IC50: 132 µM
DSEK cells; [5]
  IC50: 67 µM
DSEK cells
  inhibition of growth of rheumatism cells / antirheumatic activity: significant inhibition
Human IL-1α
  production of human IL-1α: activated

## O=C1C=CC(O)C1 (centres unmarked) [4-hydroxy-2-cyclopenten-1-one]
HL-60 cells [2]
  IC50: 25.5 µM
DSEK cells; 50 μM, 24 hours
  Degree of Cell Growth: 0.57 A450-650
DSEK cells; 50 μM, 48 hours
  Degree of Cell Growth: 0.71 A450-650
DSEK cells; 50 μM, 72 hours
  Degree of Cell Growth: 0.73 A450-650
DSEK cells; 50 μM, 96 hours
  Degree of Cell Growth: 0.54 A450-650
DSEK cells; 75 μM, 24 hours
  Degree of Cell Growth: 0.51 A450-650
DSEK cells; 75 μM, 48 hours
  Degree of Cell Growth: 0.68 A450-650
DSEK cells; 75 μM, 72 hours
  Degree of Cell Growth: 0.68 A450-650
DSEK cells; 75 μM, 96 hours
  Degree of Cell Growth: 0.55 A450-650
DSEK cells; 100 μM, 24 hours
  Degree of Cell Growth: 0.50 A450-650
DSEK cells; 100 μM, 48 hours
  Degree of Cell Growth: 0.64 A450-650
DSEK cells; 100 μM, 72 hours
  Degree of Cell Growth: 0.67 A450-650
DSEK cells; 100 μM, 96 hours
  Degree of Cell Growth: 0.51 A450-650
DSEK cells; 150 μM, 24 hours
  Degree of Cell Growth: 0.46 A450-650
DSEK cells; 150 μM, 48 hours
  Degree of Cell Growth: 0.55 A450-650
DSEK cells; 150 μM, 72 hours
  Degree of Cell Growth: 0.63 A450-650
DSEK cells; 150 μM, 96 hours
  Degree of Cell Growth: 0.50 A450-650
DSEK cells; [3]
  IC50: 207 µM
DSEK cells; [4]
  IC50: 60 µM
DSEK cells; [5]
  IC50: 60 µM
DSEK cells; [6]
  IC50: 35 µM
DSEK cells
  inhibition of growth of rheumatism cells / antirheumatic activity: significant inhibition
Human IL-1α
  production of human IL-1α: inhibited

## O=C/C=C/C1COC(/C=C/C(O)CO)O1 (stereo not drawn) [2-(trans-3,4-dihydroxy-1-butenyl)-4-(trans-2-formylvinyl)-1,3-dioxolane]
HL-60 cells [1]
  final concentration at which aggregation of nuclei, reduction in size of the cells and formation of apoptic body were confirmed: ≥ 80 µM
HL-60 cells [2]
  IC50: 74.4 µM
DSEK cells; [3]
  IC50: 267 µM
DSEK cells; [5]
  IC50: 68 µM
DSEK cells
  inhibition of growth of rheumatism cells / antirheumatic activity: significant inhibition
Human IL-1α
  production of human IL-1α: activated

— patent publication US6809091B1, “Substances capable of inducing apoptosis” (Takara Bio Inc., priority 1998, dated 2004)
